Measured values reported in PubChem BioAssay (NCI).
Values joined by “and” are separate entries in the source; they are usually repeats but may differ in a detail not shown here. Equal entries are not always repeated.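 Protocol summary: plate cells (96-well), add compound at 5 concentrations, incubate 48 h, interpolate endpoints linearly. Abbreviation: GI50, concentration required for 50% inhibition of growth. At the TGI there is no net growth.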

What was measured:
Assay in all cases: growth of human tumour cells (NCI), 48 h
[1] = test system: HCT-116 colon
[2] = test system: LOX IMVI melanoma
[3] = test system: TK-10 renal
[4] = test system: SN12C renal
[5] = test system: CCRF-CEM leukemia
[6] = test system: SK-OV-3 ovarian
[7] = test system: NCI-H522 lung
[8] = test system: MDA-MB-231 breast
[9] = test system: MCF7 breast
[10] = test system: NCI-H23 lung

SMILES: O=C(O)CCC1CCC(c2cc(F)ccc2F)(S(=O)(=O)c2ccc(Cl)cc2)CC1 (stereo not given)
- GI50 [1]: 23.5 µM and > 100 µM
- TGI [1]: > 100 µM
- GI50 [2]: 40.3 µM and > 66.5 µM
- TGI [2]: > 100 µM
- GI50 [3]: 27.3 µM and > 100 µM
- TGI [3]: > 100 µM
- GI50 [4]: 49 µM and > 100 µM
- TGI [4]: > 100 µM
- GI50 [5]: 29 µM and > 100 µM
- TGI [5]: > 100 µM
- GI50 [6]: 32.1 µM and > 100 µM
- TGI [6]: > 100 µM
- GI50 [7]: 20.7 µM and > 100 µM
- TGI [7]: 79.7 µM and > 100 µM
- GI50 [8]: 30.4 µM and > 100 µM
- TGI [8]: > 100 µM
- GI50 [9]: 29.2 µM and > 81.4 µM
- TGI [9]: > 100 µM
- GI50 [10]: 23.4 µM and > 100 µM
- TGI [10]: > 100 µM

SMILES: [N-]=[N+]=CC(=O)OCC(N)C(=O)O (stereo not given)
- GI50 [1]: 0.448 µM
- TGI [1]: > 100 µM
- GI50 [2]: 0.485 µM
- TGI [2]: > 100 µM
- GI50 [3]: 0.573 µM
- TGI [3]: > 100 µM
- GI50 [4]: 0.749 µM
- TGI [4]: > 100 µM
- GI50 [5]: 0.623 µM
- TGI [5]: > 100 µM
- GI50 [6]: 0.808 µM
- TGI [6]: > 100 µM
- GI50 [7]: 0.512 µM
- TGI [7]: > 100 µM
- GI50 [8]: 0.763 µM
- TGI [8]: > 100 µM
- GI50 [9]: 0.456 µM
- TGI [9]: > 100 µM
- GI50 [10]: 1.85 µM
- TGI [10]: > 100 µM

SMILES: CO[C@H]1CC[C@@]2(C)C(=CC[C@H]3[C@@H]4C[C@H](O)C[C@@]4(C)CC[C@@H]32)C1
- GI50 [1]: 4.88 µM
- TGI [1]: 18.1 µM
- GI50 [2]: 6.17 µM
- TGI [2]: 24.5 µM
- GI50 [3]: 4.74 µM
- TGI [3]: 17.9 µM
- GI50 [4]: 6.61 µM
- TGI [4]: 22 µM
- GI50 [5]: 3.05 µM
- TGI [5]: 19.1 µM
- GI50 [6]: 4.46 µM
- TGI [6]: 49 µM
- GI50 [7]: 3.96 µM
- TGI [7]: 15.5 µM
- GI50 [8]: 4.97 µM
- TGI [8]: 24.7 µM
- GI50 [9]: 5.32 µM
- TGI [9]: 25.3 µM
- GI50 [10]: 5.54 µM
- TGI [10]: 27.1 µM

SMILES: COC(=O)Nc1nc2ccc(Oc3ccc(NC(=O)Nc4cccc(Cl)c4)cc3)cc2[nH]1
- GI50 [1]: 1.09 µM
- TGI [1]: 5.29 µM
- GI50 [2]: 1.42 µM
- TGI [2]: 6.6 µM
- GI50 [3]: 4 µM
- TGI [3]: 11.6 µM
- GI50 [4]: 2.06 µM
- TGI [4]: 11.7 µM
- GI50 [5]: 0.838 µM
- TGI [5]: > 15 µM
- GI50 [6]: 1.03 µM
- TGI [6]: 4.62 µM
- GI50 [7]: 0.543 µM
- TGI [7]: 4.07 µM
- GI50 [8]: 3.31 µM
- TGI [8]: 19.3 µM
- GI50 [9]: 0.307 µM
- TGI [9]: 4.75 µM
- GI50 [10]: 2.24 µM
- TGI [10]: 12.9 µM

SMILES: COC(=O)C#Cc1ccc([N+](=O)[O-])cc1
- TGI [1]: 3.46 µM
- TGI [2]: 2.64 µM
- TGI [3]: 3.79 µM
- TGI [4]: 3.22 µM
- TGI [5]: 2.27 µM
- TGI [6]: 19 µM
- TGI [7]: 3.47 µM
- TGI [8]: 4.08 µM
- TGI [9]: 9.04 µM
- TGI [10]: 3.68 µM

SMILES: CN(C)CC1CCn2c(c(C3=C(c4cn(C)c5ccccc45)C(=O)NC3=O)c3ccccc32)C1 (stereo not given)
- GI50 [1]: 3.24 µM
- TGI [1]: 6.75 µM
- GI50 [2]: 3.86 µM
- TGI [2]: 7.83 µM
- GI50 [3]: 3.03 µM
- TGI [3]: 7.27 µM
- GI50 [4]: 3.89 µM
- TGI [4]: 8.11 µM
- GI50 [5]: 6.41 µM
- TGI [5]: 24.2 µM
- GI50 [6]: 4.62 µM
- TGI [6]: 10.5 µM
- GI50 [7]: 4.07 µM
- TGI [7]: 7.95 µM
- GI50 [8]: 3.42 µM
- TGI [8]: 7.56 µM
- GI50 [9]: 4.31 µM
- TGI [9]: 8.03 µM
- GI50 [10]: 4.71 µM
- TGI [10]: 11.3 µM

SMILES: CC(=O)OCC1OC(S[As](C)C)C(OC(C)=O)C1OC(C)=O (stereo not given)
- GI50 [1]: 0.226 µM
- TGI [1]: 1.38 µM
- GI50 [2]: 0.257 µM
- TGI [2]: 0.991 µM
- GI50 [3]: 0.231 µM
- TGI [3]: 0.843 µM
- GI50 [4]: 0.33 µM
- TGI [4]: 1.51 µM
- GI50 [5]: 0.19 µM
- TGI [5]: 1.34 µM
- GI50 [6]: 1.14 µM
- TGI [6]: 7.71 µM
- GI50 [7]: 0.139 µM
- TGI [7]: 0.528 µM
- GI50 [8]: 0.404 µM
- TGI [8]: 2.34 µM
- GI50 [9]: 0.304 µM
- TGI [9]: 1.11 µM
- GI50 [10]: 0.551 µM
- TGI [10]: 3.63 µM

SMILES: CO[C@H](C(=O)N[C@@H](CCCCNC(=O)OCc1ccccc1)C(=O)OC(C)(C)C)[C@@H]1Cc2cc3cc(OC4CC(OC5CC(O)C(O)C(C)O5)C(O)C(C)O4)c(C)c(O)c3c(O)c2C(=O)[C@H]1OC1CC(OC2CC(OC3CC(C)(O)C(O)C(C)O3)C(O)C(C)O2)C(O)C(C)O1 (stereo not given in full)
- GI50 [1]: 0.397 µM
- TGI [1]: 1.63 µM
- GI50 [2]: 0.434 µM
- TGI [2]: 2.4 µM
- GI50 [3]: 1.15 µM
- TGI [3]: > 10 µM
- GI50 [4]: 0.463 µM
- TGI [4]: 3.88 µM
- GI50 [5]: 0.404 µM
- TGI [5]: 5.07 µM
- GI50 [6]: 1.02 µM
- TGI [6]: 2.81 µM
- GI50 [7]: 0.687 µM
- TGI [7]: 3.15 µM
- GI50 [8]: 0.939 µM
- TGI [8]: 3.1 µM
- GI50 [9]: 0.281 µM
- TGI [9]: 2.03 µM
- GI50 [10]: 0.667 µM
- TGI [10]: 2.37 µM

SMILES: NC(=O)Oc1cc(OC(N)=O)cc(N(CCCl)CCCl)c1
- GI50 [1]: 7.77 µM
- TGI [1]: > 100 µM
- GI50 [2]: 2.3 µM
- TGI [2]: > 100 µM
- GI50 [3]: 19.3 µM
- TGI [3]: 55.9 µM
- GI50 [4]: 2.41 µM
- TGI [4]: > 100 µM
- GI50 [5]: 0.902 µM
- TGI [5]: > 100 µM
- GI50 [6]: 13.1 µM
- TGI [6]: > 100 µM
- GI50 [7]: 2.08 µM
- TGI [7]: 6.12 µM
- GI50 [8]: 25.9 µM
- TGI [8]: > 100 µM
- GI50 [9]: 1.09 µM
- TGI [9]: 47.4 µM
- GI50 [10]: 6.12 µM
- TGI [10]: 63 µM

SMILES: Cc1ccc(C(=O)NC2CCCCC2)cc1-c1ccc(C(=O)NCC2CC2)cc1
- GI50 [1]: 20.9 µM
- TGI [1]: > 25 µM
- GI50 [2]: > 25 µM
- TGI [2]: > 25 µM
- GI50 [3]: > 25 µM
- TGI [3]: > 25 µM
- GI50 [4]: > 25 µM
- TGI [4]: > 25 µM
- GI50 [5]: > 25 µM
- TGI [5]: > 25 µM
- GI50 [6]: > 25 µM
- TGI [6]: > 25 µM
- GI50 [7]: 13.5 µM
- TGI [7]: > 25 µM
- GI50 [8]: > 25 µM
- TGI [8]: > 25 µM
- GI50 [9]: > 23.9 µM
- TGI [9]: > 25 µM
- GI50 [10]: > 25 µM
- TGI [10]: > 25 µM

SMILES: CCOC(=O)c1c(Cl)c2c(n1Cc1cc(OC)cc(OC)c1)-c1oncc1CCC2
- GI50 [1]: 0.432 µM
- TGI [1]: > 100 µM
- GI50 [2]: 0.709 µM
- TGI [2]: > 100 µM
- GI50 [3]: 10.3 µM
- TGI [3]: > 100 µM
- GI50 [4]: 0.77 µM
- TGI [4]: > 100 µM
- GI50 [5]: 0.295 µM
- TGI [5]: > 100 µM
- GI50 [6]: 0.4 µM
- TGI [6]: 49.6 µM
- GI50 [7]: 0.0304 µM
- TGI [7]: 0.195 µM
- GI50 [8]: 0.812 µM
- TGI [8]: > 91.7 µM
- GI50 [9]: 0.168 µM
- TGI [9]: > 100 µM
- GI50 [10]: 0.607 µM
- TGI [10]: > 100 µM

SMILES: CN(CCC(=O)O)S(=O)(=O)c1ccccc1
- TGI [1]: > 100 µM
- TGI [2]: > 100 µM
- TGI [3]: > 100 µM
- TGI [4]: > 100 µM
- TGI [5]: > 100 µM
- TGI [6]: > 100 µM
- TGI [7]: > 100 µM
- TGI [8]: > 100 µM
- TGI [9]: > 100 µM
- TGI [10]: > 100 µM
